In paper doi:10.1101/2025.06.05.658145v1 (biorxiv, 2025):

What was measured:
AcTyrAnc [1] = assay: NADPH formation at […] nm, Michaelis-Menten fit; format: biochemical, Ananas comosus; conditions: 1 mM NADP+, 50 mM HEPES pH 7.5, 50 mM KCl, 37 °C
JaTyrA1 [2] = assay: NADPH formation at […] nm, Michaelis-Menten fit; format: biochemical, Joinvillea ascendens; conditions: 1 mM NADP+, 50 mM HEPES pH 7.5, 50 mM KCl, 37 °C
JaTyrAnc [3] = assay: NADPH formation at […] nm, Michaelis-Menten fit; format: biochemical, Joinvillea ascendens; conditions: 1 mM NADP+, 50 mM HEPES pH 7.5, 50 mM KCl, 37 °C
AcTyrA1 [4] = assay: NADPH formation at […] nm, Michaelis-Menten fit; format: biochemical, Ananas comosus; conditions: 1 mM NADP+, 50 mM HEPES pH 7.5, 50 mM KCl, 37 °C
SaTyrA1 [5] = assay: NADPH formation at […] nm, Michaelis-Menten fit; format: biochemical, Streptochaeta angustifolia; conditions: 1 mM NADP+, 50 mM HEPES pH 7.5, 50 mM KCl, 37 °C
SaTyrAnc [6] = assay: NADPH formation at […] nm, Michaelis-Menten fit; format: biochemical, Streptochaeta angustifolia; conditions: 1 mM NADP+, 50 mM HEPES pH 7.5, 50 mM KCl, 37 °C
OsTyrA1 [7] = target: T1, OsTyrA1 (Oryza sativa, UniProt Q5Z9H5); conditions: competitive model; 500 µM arogenate, 1 mM NADP+, pH 7.5, 37 °C
T1 sequence (Q5Z9H5 46-353): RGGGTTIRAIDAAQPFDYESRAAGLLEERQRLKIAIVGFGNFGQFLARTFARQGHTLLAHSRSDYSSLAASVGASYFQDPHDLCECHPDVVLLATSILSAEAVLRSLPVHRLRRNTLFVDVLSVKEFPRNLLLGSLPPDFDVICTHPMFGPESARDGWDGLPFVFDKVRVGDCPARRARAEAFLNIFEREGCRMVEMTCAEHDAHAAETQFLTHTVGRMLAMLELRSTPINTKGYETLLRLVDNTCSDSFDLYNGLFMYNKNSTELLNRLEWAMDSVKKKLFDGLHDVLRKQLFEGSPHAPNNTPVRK

OsTyrAnc [8] = target: T2, OsTyrAnc (Oryza sativa, UniProt Q5Z6Y1); conditions: read-out: IC50 (µM Tyr); 500 uM arogenate, 1 mM NADP+; inhibitor
T2 sequence (Q5Z6Y1 50-342): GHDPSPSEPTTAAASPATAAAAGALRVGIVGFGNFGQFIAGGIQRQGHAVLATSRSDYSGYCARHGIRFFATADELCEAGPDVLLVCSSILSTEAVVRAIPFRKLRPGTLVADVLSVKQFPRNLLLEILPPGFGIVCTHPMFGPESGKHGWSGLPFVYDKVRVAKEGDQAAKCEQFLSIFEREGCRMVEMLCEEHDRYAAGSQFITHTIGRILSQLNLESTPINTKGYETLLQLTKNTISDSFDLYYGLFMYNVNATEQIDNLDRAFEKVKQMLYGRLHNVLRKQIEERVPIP

JaTyrAnc [9] = conditions: competitive model; 500 µM arogenate, 1 mM NADP+, pH 7.5, 37 °C
AcTyrAnc [10] = conditions: competitive model; 500 µM arogenate, 1 mM NADP+, pH 7.5, 37 °C
OsTyrA1 [11] = target: T1, OsTyrA1; conditions: read-out: IC50 (µM Tyr); 500 uM arogenate, 1 mM NADP+; inhibitor
AcTyrA1 [12] = conditions: competitive model; 500 µM arogenate, 1 mM NADP+, pH 7.5, 37 °C
ZmTyrAnc [13] = target: T3, ZmTyrAnc (Zea mays, UniProt C0PK73); conditions: read-out: IC50 (µM Tyr); 500 uM arogenate, 1 mM NADP+; inhibitor
T3 sequence (C0PK73 50-392): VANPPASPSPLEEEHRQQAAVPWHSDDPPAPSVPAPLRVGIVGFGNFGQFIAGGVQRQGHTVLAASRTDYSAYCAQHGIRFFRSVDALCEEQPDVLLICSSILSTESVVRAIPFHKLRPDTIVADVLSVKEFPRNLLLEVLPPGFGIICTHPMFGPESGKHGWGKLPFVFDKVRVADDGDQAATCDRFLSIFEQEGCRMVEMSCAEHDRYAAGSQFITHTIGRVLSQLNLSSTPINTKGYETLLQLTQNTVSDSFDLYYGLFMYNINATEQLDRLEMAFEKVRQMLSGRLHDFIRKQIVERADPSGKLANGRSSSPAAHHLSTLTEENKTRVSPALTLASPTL

OsTyrAnc [14] = target: T2, OsTyrAnc; conditions: competitive model; 500 µM arogenate, 1 mM NADP+, pH 7.5, 37 °C
SaTyrAnc [15] = conditions: competitive model; 500 µM arogenate, 1 mM NADP+, pH 7.5, 37 °C
ZmTyrAnc [16] = target: T3, ZmTyrAnc; conditions: competitive model; 500 µM arogenate, 1 mM NADP+, pH 7.5, 37 °C
JaTyrA1 [17] = conditions: competitive model; 500 µM arogenate, 1 mM NADP+, pH 7.5, 37 °C
SaTyrA1 [18] = conditions: competitive model; 500 µM arogenate, 1 mM NADP+, pH 7.5, 37 °C

Compound	Km (AcTyrAnc [1])	Km (JaTyrA1 [2])	Km (JaTyrAnc [3])	Km (AcTyrA1 [4])	Km (SaTyrA1 [5])	Km (SaTyrAnc [6])	Ki (OsTyrA1 [7])	IC50 (OsTyrAnc [8])	Ki (JaTyrAnc [9])	Ki (AcTyrAnc [10])	IC50 (OsTyrA1 [11])	Ki (AcTyrA1 [12])	IC50 (ZmTyrAnc [13])	Ki (OsTyrAnc [14])	Ki (SaTyrAnc [15])	Ki (ZmTyrAnc [16])	Ki (JaTyrA1 [17])	Ki (SaTyrA1 [18])
N[C@@H](CC1(C(=O)O)C=CC(O)C=C1)C(=O)O (stereo partly drawn) [arogenate]	1050 ± 170 µM	730 ± 60 µM	1900 ± 240 µM	750 ± 80 µM	720 ± 90 µM	350 ± 20 µM	–	–	–	–	–	–	–	–	–	–	–	–
N[C@@H](Cc1ccc(O)cc1)C(=O)O [tyrosine]	–	–	–	–	–	–	21 ± 2 µM	280 ± 70 µM	106 ± 19 µM	76 ± 30 µM	53 ± 5 µM	12 ± 6 µM	850 ± 30 µM	78 ± 19 µM	35 ± 8 µM	352 ± 13 µM	24 ± 4 µM	34 ± 23 µM
